Source: ChEMBL document CHEMBL1212716, “Impact of linker strain and flexibility in the design of a fragment-based inhibitor” (Nat Chem Biol, 2009)

Key:
Uracil-DNA glycosylase [1] = target: T1, Uracil-DNA glycosylase (Homo sapiens, UniProt P13051); assay: Inhibition of human uracil DNA glycosylase using fluorescent DNA substrate
Uracil-DNA glycosylase [2] = target: T1, Uracil-DNA glycosylase; assay: Inhibition of human uracil DNA glycosylase at […] using fluorescent DNA substrate

T1 sequence (P13051 whole entry): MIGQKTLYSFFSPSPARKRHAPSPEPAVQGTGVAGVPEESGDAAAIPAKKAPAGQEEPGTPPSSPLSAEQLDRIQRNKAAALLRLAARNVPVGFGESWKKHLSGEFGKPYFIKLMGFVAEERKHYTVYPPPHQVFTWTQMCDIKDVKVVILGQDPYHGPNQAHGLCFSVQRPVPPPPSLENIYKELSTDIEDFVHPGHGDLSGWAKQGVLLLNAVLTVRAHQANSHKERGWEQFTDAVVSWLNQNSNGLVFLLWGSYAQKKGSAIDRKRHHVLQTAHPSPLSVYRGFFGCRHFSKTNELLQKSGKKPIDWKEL

| Ki (Uracil-DNA glycosylase [1]) | inhibition (Uracil-DNA glycosylase [2]) | SMILES |
| --- | --- | --- |
| 10 mM | 25% | NCCCO/N=C/c1cccc(C(=O)O)c1 |
| 10 mM | – | O=Cc1cccc(C(=O)O)c1 [3-FORMYLBENZOIC ACID] |
| 16 mM | 18% | NOCCCNCc1cccc(C(=O)O)c1 |
| 0.75 mM | – | NCCCO/N=C/c1cc(=O)[nH]c(=O)[nH]1 |
| 0.7 mM | – | NOCCCNCc1cc(=O)[nH]c(=O)[nH]1 |
